# Key:
# [1] = Derwent Publications 78-88538A; cited from earlier work
# [2] = tested on: paw edema induced by the exogenous administration of PLA2; assay: animal or person; type: in vivo, male CD-1 mice; conditions: for ED50 mg/kg p.o. at +10 min. (result in words) / % Change in Edema, 10 min: 10 min after PLA2 injection; for ED50 mg/kg p.o. at +10 min. (result in words): standard drugs; for ED50: Mus musculus, 10 min, read-out: ED50 mg/kg p.o. at +10 min.; for ED50 / ED50 mg/kg p.o. at +10 min.: po; for ED50 mg/kg p.o. at +10 min.: mouse, in vivo; for % Change in Edema, 30 min: 30 min after PLA2 injection; for % Change in Edema, 60 min: 60 min after PLA2 injection
# Method: The ability of the compounds of the invention to inhibit paw edema induced by the exogenous administration of PLA2 is measured in the in vivo PLA2 murine paw edema assay.
# The assay is carried out as follows:
# Non-fasted, male CD-1 mice (8 weeks old; 31-36 grams) are placed in plastic boxes in groups of six. The right hind paw volume is measured using mercury plethysmography (zero time). Compounds are dosed orally (0.5 mL of 0.5% Tween80) 1 or 3 hours prior to PLA2 injection or intravenously (0.2 mL in 0.3% dimethylsulfoxide/saline) 3 minutes prior to PLA2 injection. A solution of purified PLA2, from the diamond back cotton mouth snake (A. piscivorus piscivorus) is prepared in saline at a concentration of 6 μg/mL. Fifty (50) μL (0.3 μg) of this PLA2 solution is injected subcutaneously into the right hind paw with a plastic 1 mL plastic syringe (27 gauge, 1" needle). Paw volume of the injected paw is measured again at 10 minutes, 30 minutes and 60 minutes after PLA2 injection. Animals are euthanized with CO2 at the completion of the study.
# The paw edema is calculated by subtracting the zero time volume from the volume recorded at each time period. Mean paw edema for each treatment group is then calculated and expressed as (μL±S.E.). Drug effects are expressed as a percent change from control (vehicle) values. Statistical significance is determined by a oneway analysis of variance with LSD comparison to control (p<0.05). ED50 's are determined using repression analysis.
# [3] = tested on: paw edema induced by the exogenous administration of PLA2; type: in vivo, male CD-1 mice
# carrageenan paw edema = assay: rat carrageenan paw edema assay; type: in vivo, male Sprague-Dawley rats; conditions: for ED50: Rattus norvegicus, po, 3 h, read-out: Oral ED50 (95% C.L.) mg/kg
# Method: The compounds of the invention are tested in the rat carrageenan paw edema assay to determine their ability to inhibit the acute inflammatory response.
# (§1) This assay is carried out as follows:
# 140-180 gm male Sprague-Dawley rats, in groups of 6 animals, are injected subcutaneously in the right paw with 0.1 ml of 1% carrageenan at zero time. Mercury plethysmographic readings (ml) of the paw are made at zero time and 3 hours later. Test compounds are suspended or dissolved in 0.5% methylcellulose and given perorally 1 hour prior to carrageenan administration.
# The increase in paw volume (edema in ml) produced by the carrageenan is measured. Paw edema is calculated (3 hour volume minus zero time volume), and percent inhibition of edema is determined. Unpaired Student's t-test is used to determine statistical significance.
# Human Synovial PLA2 = biological target: T1, Human Synovial PLA2 (Homo sapiens, UniProt P14555); assay: in vitro isolated phospholipase A2 assay, human synovial fluid PLA2; type: biochemical; conditions: for IC50: compounds of the invention, read-out: IC50 HSF (human synovial fluid)
# T1 construct: Purified human synovial fluid; from tissue; host or cells: human synovial fluid (purified)
# T1 sequence (P14555 21-144): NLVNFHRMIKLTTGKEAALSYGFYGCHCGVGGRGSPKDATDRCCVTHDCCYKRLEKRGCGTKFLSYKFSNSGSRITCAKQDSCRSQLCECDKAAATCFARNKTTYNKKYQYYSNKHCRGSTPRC
# Method: (§2) The compounds of the invention are tested in an in vitro isolated phospholipase A2 assay to determine the ability of the test compounds to inhibit the release of arachidonic acid from an arachidonic acid-containing substrate by the action of phospholipase A2 enzyme from human and non-human sources.
# as §1
# (§3) Into a 15 mL polypropylene tube are added the following:
# (§4) ^3 H-AA E.coli substrate^1
# (§5) PLA2 25 Volume yielding 12%
# (§6) 100 hydrolysis in 10 min.
# (§7) *pre-incubate at room temperature 30 min prior to substrate addition.
# (§8) ^5 Stock 10 mM prepared in dimethyl sulfoxide. Make 1:2 dilution with
# (§9) dimethyl sulfoxide and add 1 μL to 100 μL assay tube.
# (§10) ^ 6 Two human PLA2 enzymes are used: (a) Semipurified human
# (§11) platelet acid extract PLA2 (in 10 mM sodium acetate buffer, pH 4.5).
# (§12) Remove protein precipitate by centrifugation at about 2200 rpm for 10
# (§13) minutes. (b) Purified human synovial fluid.
# (§14) Incubate the 100 μL reaction mixture for 10 minutes at 37° C. in a shaking water bath. The reaction is terminated by the addition of 2 mL tetrahydrofuran, followed by vortexing. NH2 columns (100 μg/mL-Analytichem International) are conditioned with 0.5 mL tetrahydrofuran followed by 0.5 mL tetrahydrofuran/water (2 mL:0.1 mL, v/v).
# (§15) The sample is loaded onto the columns and slowly drawn through them. The hydrolyzed arachidonic acid retained in the columns is eluted therefrom with 1 mL tetrahydrofuran/glacial acetic acid (2%). The arachidonic acid is transferred to scintillation vials and quantitated by β-counting analysis. A "total counts" sample is prepared by pipetting 25 μL ^3 H-arachidonate E. coli directly into a scintillation vial to which is added 1 mL tetrahydrofuran. 10 mL aquasol (scintillation cocktail) is added to all samples. [formula]
# [4] = tested on: synthesis of LTB4 by rat glycogen-elicited polymorphonuclear leukocytes; assay: inhibition of LTB4 synthesis by rat glycogen-elicited polymorphonuclear leukocytes (PMN); type: cell-based; conditions: Leukocyte
# Method: Accordingly, the specificity of action of PLA2 inhibitors can be determined by the activity of test compounds in this assay, which measures the ability of compounds to inhibit the synthesis of LTB4 by rat glycogen-elicited polymorphonuclear leukocytes (PMN) in the presence of exogenous substrate.
# To 1 mL aliquots of cell suspension, test drugs or vehicle are added, then preincubated at 37° C. for 10 minutes. A23187 (1 μM), [^3 H]-AA (3.0 μCi/mL) and unlabeled AA (1 μM) are then added and the samples are further incubated for 10 minutes. […]
# Injections: 140 μL of each supernatant is injected directly onto column and ^3 H arachidonic acid metabolites are monitored using an on-line radioactivity detector (Ramona, IN/US, Fairfield, NJ). […]
# Results are expressed as percent inhibition at a given compound dose.
# Hageman factor = conditions: Ratnoff et al., J. Lab. Clin. Med. 63, 359 (1964); cited from earlier work
# Human Platelet PLA2 = biological target: T2, Human Platelet PLA2 (Homo sapiens, UniProt P14555); assay: in vitro isolated phospholipase A2 assay, human platelet PLA2; type: biochemical
# T2 construct: platelet acid extract PLA2; from tissue; host or cells: human platelets (semipurified acid extract)
# T2 sequence (P14555 21-144): T1 sequence (P14555 21-144)
# Method: as §2, §1, §3, §4, §5, §6, §7, §8, §9, §10, §11, §12, §13, §14, §15
# [5] = tested on: synthesis of the arachidonic acid cyclooxygenase oxidation product TxB2; assay: inhibition of TxB2 synthesis by rat polymorphonuclear leukocytes (cyclooxygenase activity); type: cell-based; conditions: rat PMN
# Method: Rat polymorphonuclear leukocytes (PMNs) are obtained from female Wistar rats (150-200 g) which receive an injection of 6% glycogen (10 ml i.p.). Rats are sacrificed 18-24 hours post injection by CO2 asphyxiation and the elicited cells are harvested by peritoneal lavage using physiological saline (0.9% NaCl). The exudate is centrifuged at 400 xg for 10 minutes. The supernatant fluid is discarded and the cell pellet is resuspended to a concentration of 2.0×10^7 cells/mL in HBSS containing Ca^++ and Mg^++ and 10 μM L-cysteine.
# To 1 mL aliquots of cell suspension, test drugs or vehicle are added, then preincubated at 37° C. for 10 minutes. A23187 (1 μM), [^3 H]-AA (3.0 μCi/mL) and unlabeled AA (1 μM) are then added and the samples are further incubated for 10 minutes. The reaction is terminated by centrifugation and pelleting cells. Supernatants are then analyzed by HPLC analysis on a 15 cm×4.6 mm ID supelcosil LC-18 (Supelco)(3M) column, using a two solvent system at a flow rate of 1.4 mL total flow as follows:
# In this assay, the procedure of Example 1 is carried out as described. However, in order to determine cyclooxygenase activity, the samples are cochromatographed with authentic reference [^3 H]-TxB2.
# The results are calculated as in Example 1 and presented below: […]
compound,measurement,setting,value
"COc1c(O)cc2c(=O)oc3c(OC)c(O)cc4c(=O)oc1c2c34 [3,3'dimethyl ellagic acid]",antitumor activity,[1],antitumor activity
"COc1cccc2c1cc([N+](=O)[O-])c1c(C(=O)O)cc3c(c12)OCO3 [Aristolochic Acid, reference compound]",ED50 mg/kg p.o. at +10 min. (result in words),[2],Not Active
same,inhibition only when coinjected with enzyme,[3],30%
CC(=O)Oc1ccccc1C(=O)O [Aspirin],ED50,carrageenan paw edema,145 mg/kg
"NC1=NN(c2cccc(C(F)(F)F)c2)CC1 [BW755C, reference compound]",ED50,[2],50 mg/kg
"CN1CCC(=C2c3ccccc3C=Cc3ccccc32)CC1 [Cyproheptadine, reference compound]",ED50,[2],3.1 mg/kg
"C[C@@H]1C[C@H]2[C@@H]3CCC4=CC(=O)C=C[C@]4(C)[C@@]3(F)[C@@H](O)C[C@]2(C)[C@@]1(O)C(=O)CO [Dexamethasone, reference compound]",ED50 mg/kg p.o. at +10 min.,[2],10 mg/kg
"O=c1oc2c(O)c(O)cc3c(=O)oc4c(O)c(O)cc1c4c23 [Example 1, 4, 4', 5, 5', 6, 6'-hexahydrodiphenic acid 2,6, 2', 6'-dilactone]","% Inhibition, HSF (human synovial fluid)","Human Synovial PLA2; at 50 μM (footnote +), 50 µM",89.5%
same,inhibition at 50 µM,"Human Synovial PLA2; at 50 μM (footnote +), read-out: % Inhibition, HSF (human synovial fluid)",86.5%
same,IC50,Human Synovial PLA2,21 nM
same,"% Change in Edema, 10 min",[2]; 10 mg/kg i.v.,-22%
same,"% Change in Edema, 30 min",[2]; 10 mg/kg i.v.,-64%
same,"% Change in Edema, 60 min",[2]; 10 mg/kg i.v.,-18%
same,"% Change in Edema, 10 min",[2]; 100 mg/kg p.o.,-35%
same,"% Change in Edema, 30 min",[2]; 100 mg/kg p.o.,+4%
same,"% Change in Edema, 60 min",[2]; 100 mg/kg p.o.,-73%
same,inhibition at 10 µM,[4],39%
same,ability to activate Hageman factor,Hageman factor,ability to activate Hageman factor
same,inhibition at 50 µM,"Human Platelet PLA2; at 50 μM (footnote +), read-out: % Inhibition, HP (human platelet)",38.8%
same,inhibition at 10 µM,[5]; Leukocyte,4%
same,% Inhibition at 50 mg/kg (peroral),"carrageenan paw edema; 50 mg/kg peroral, 1 hour prior to carrageenan, edema at 3 hours",37%
"CC(=O)Oc1cc2c(=O)oc3c(OC(C)=O)c(OC(C)=O)cc4c(=O)oc(c1OC(C)=O)c2c34 [Example 2, Ellagic Acid Tetraacetate]",inhibition at 10 µM,"Human Synovial PLA2; read-out: % Inhibition at 10 μM, HSF (human synovial fluid)",90.7%
same,inhibition at 10 µM,[4],-31%
same,inhibition at 10 µM,"Human Platelet PLA2; read-out: % Inhibition at 10 μM, HP (human platelet)",-16.6%
COc1ccc2c(c1)c(CC(=O)O)c(C)n2C(=O)c1ccc(Cl)cc1 [Indomethacin],ED50,carrageenan paw edema,3.7 mg/kg
"COc1ccc2cc([C@H](C)C(=O)O)ccc2c1 [Naproxen, reference compound]",ED50 mg/kg p.o. at +10 min.,[2],18 mg/kg
Ellagic Acid Diacetate [Example 3],"% Inhibition at 10 μM, HSF (human synovial fluid)",Human Synovial PLA2; at 10 μM,95.6%
same,IC50,Human Synovial PLA2,360 nM
same,"% Inhibition at 10 μM, HP (human platelet)",Human Platelet PLA2; at 10 μM,0%
same,% Inhibition (TxB2 synthesis),[5]; at 10 μM,9%
Luffarrellolide [reference compound],ED50 mg/kg p.o. at +10 min. (result in words),[2],Not Active
same,inhibition only when coinjected with enzyme,[3],30%

# From patent US5066671A, “Ellagic acid derivatives as phospholipase A2 inhibitors” (American Home Products Corporation, priority 1990, dated 1991)
